Laboratory results taken from US20180118718A1, “Substituted Quinoxaline Derivatives” (Selvita S.A., priority 2015, published 2018).

Molecular target: T1, Human recombinant His-tagged PFKFB3 (Homo sapiens, UniProt Q16875)
T1 construct: His; made in house
Test: PFKFB3 IC50 Determination Assay (in vitro kinase assay, modified ADP-Glo system)
Type: biochemical
Conditions: ATP 20 μM and fructose-6-phosphate 2 μM (Km), 25 nM PFKFB3, 2 h, rt, ADP-Glo luminescence
Outline: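 In-house His-tagged human PFKFB3 phosphorylates fructose-6-phosphate with ATP and substrate at Km; ADP measured by luminescence with 5x-diluted ADP-Glo reagents. Compounds tested at 10 concentrations, routinely 100 μM to 1 nM, in duplicate, 6.7% final DMSO. Data normalized to no-substrate control, expressed as % positive control; IC50 by four-parameter fit.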

T1 sequence (Q16875 whole entry): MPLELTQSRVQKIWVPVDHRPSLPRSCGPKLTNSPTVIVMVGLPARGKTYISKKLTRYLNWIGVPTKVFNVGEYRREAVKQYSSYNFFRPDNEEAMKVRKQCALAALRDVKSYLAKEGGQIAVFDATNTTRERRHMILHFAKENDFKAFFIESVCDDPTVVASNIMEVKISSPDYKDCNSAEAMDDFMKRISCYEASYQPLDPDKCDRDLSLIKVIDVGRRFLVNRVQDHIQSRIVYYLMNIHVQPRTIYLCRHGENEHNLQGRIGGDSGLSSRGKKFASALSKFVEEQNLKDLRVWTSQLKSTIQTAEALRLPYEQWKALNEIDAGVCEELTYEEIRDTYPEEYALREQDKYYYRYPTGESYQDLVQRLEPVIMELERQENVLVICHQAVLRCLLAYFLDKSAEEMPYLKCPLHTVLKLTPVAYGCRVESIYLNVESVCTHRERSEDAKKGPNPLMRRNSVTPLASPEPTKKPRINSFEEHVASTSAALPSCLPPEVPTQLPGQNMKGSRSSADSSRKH

First: Cn1ccc2ccc(-c3cc(Nc4cnccc4C(=O)NC4CCCCC4)cc4nccnc34)cc21 [Example 126, N-Cyclohexyl-3-{[8-(1-methyl-1H-indol-6-yl)quinoxalin-6-yl]amino}pyridine-4-carboxamide]
Second: Cn1ccc2ccc(-c3cc(Nc4cnccc4C(=O)Nc4ccccc4)cc4nccnc34)cc21 [Example 96, 3-{[8-(1-Methyl-1H-indol-6-yl)quinoxalin-6-yl]amino}-N-phenylpyridine-4-carboxamide]
The IC50 of the first is higher: 1 to 10 µM for the first, 0.001 to 1 µM for the second. The second is the more potent here.

`Cn1ccc2ccc(-c3cc(Nc4cc(C#N)ccc4S(C)(=O)=O)cc4nccnc34)cc21` [Example 25, 4-Methanesulfonyl-3-{[8-(1-methyl-1H-indol-6-yl)quinoxalin-6-yl]amino}benzonitrile] and `Cn1ccc2ccc(-c3cc(Nc4cc(-c5ncco5)ccc4S(C)(=O)=O)cc4nccnc34)cc21` [Example 94, N-[2-Methanesulfonyl-5-(1,3-oxazol-2-yl)phenyl]-8-(1-methyl-1H-indol-6-yl)quinoxalin-6-amine] fall in the same range of IC50: 0.001 to 1 µM for the first, 0.001 to 1 µM for the second.

`CS(=O)(=O)c1ccncc1Nc1cc(-c2cccc(-c3cn[nH]n3)c2)c2nccnc2c1` [Example 48, N-(4-Methanesulfonylpyridin-3-yl)-8-[3-(1H-1,2,3-triazol-4-yl)phenyl]quinoxalin-6-amine] and `Cc1nc2cc(-c3cc(Nc4cnccc4S(C)(=O)=O)cc4nccnc34)ccc2s1` [Example 169, N-(4-methanesulfonylpyridin-3-yl)-8-(2-methyl-1,3-benzothiazol-5-yl)quinoxalin-6-amine] fall in the same range of IC50: 10 to 100 µM for the first, 10 to 100 µM for the second.

Compared with `Cn1ccc2ccc(-c3cc(Nc4ncncc4S(C)(=O)=O)cc4nccnc34)cc21` [Example 27, N-(5-Methanesulfonylpyrimidin-4-yl)-8-(1-methyl-1H-indol-6-yl)quinoxalin-6-amine], `Cn1ccc2ccc(-c3cc(Nc4c[n+]([O-])ccc4S(C)(=O)=O)cc4nccnc34)cc21` [Example 44, 4-Methanesulfonyl-3-{[8-(1-methyl-1H-indol-6-yl)quinoxalin-6-yl]amino}pyridin-1-ium-1-olate] is lower in IC50: 1 to 10 µM for the first, 0.001 to 1 µM for the second.

First: Cc1cc(Br)ccc1-c1cc(Nc2cnccc2S(C)(=O)=O)cc2nccnc12 [Example 212, 8-(4-Bromo-2-methylphenyl)-N-(4-methanesulfonylpyridin-3-yl)quinoxalin-6-amine]
Second: CNc1nc2cc(-c3cc(Nc4cnccc4S(C)(=O)=O)cc4nccnc34)ccc2s1 [Example 202, N-(4-Methanesulfonylpyridin-3-yl)-8-[2-(methylamino)-1,3-benzothiazol-5-yl]quinoxalin-6-amine]
The IC50 of the first is lower: 0.001 to 1 µM for the first, 1 to 10 µM for the second.

`Cn1nccc1-c1ccc(S(C)(=O)=O)c(Nc2cc(-c3ccc4ccn(C)c4c3)c3nccnc3c2)c1` [Example 93, N-[2-Methanesulfonyl-5-(1-methyl-1H-pyrazol-5-yl)phenyl]-8-(1-methyl-1H-indol-6-yl)quinoxalin-6-amine] and `Cn1ccc2ccc(-c3cc(Nc4cccnc4N)cc4nccnc34)cc21` [Example 17, 3-N-[8-(1-methyl-1H-indol-6-yl)quinoxalin-6-yl]pyridine-2,3-diamine] fall in the same range of IC50: 1 to 10 µM for the first, 1 to 10 µM for the second.

`Cn1ccc2ccc(-c3cc(Nc4cnccc4C(=O)Nc4cccnc4)cc4nccnc34)cc21` [Example 207, 3-{[8-(1-Methyl-1H-indol-6-yl)quinoxalin-6-yl]amino}-N-(pyridin-3-yl)pyridine-4-carboxamide] and `CN(C)Cc1ccccc1Nc1cc(-c2ccc3ccn(C)c3c2)c2nccnc2c1` [Example 176, N-{2-[(Dimethylamino)methyl]phenyl}-8-(1-methyl-1H-indol-6-yl)quinoxalin-6-amine] fall in the same range of IC50: 0.001 to 1 µM for the first, 0.001 to 1 µM for the second.

Work on `CN(c1cc(-c2ccc3ccn(C)c3c2)c2nccnc2c1)c1cnccc1C#N` [Example 91, 3-{Methyl[8-(1-methyl-1H-indol-6-yl)quinoxalin-6-yl]amino}pyridine-4-carbonitrile] yielded an IC50 of 1 to 10 µM.
